Here are results for five compounds from ChEMBL document CHEMBL3045367, “Preparation and testing of homocubyl amines as therapeutic NMDA receptor antagonists” (Med Chem Res, 2013).

The nature of the test: Displacement of [3H](+)-MK-801 from N-methyl D-aspartate receptor in Rattus norvegicus (rat) forebrain membranes after 90 min. Also noted: species or system Membrane.

Usually IC50 stands for the concentration at which inhibition is half-maximal. Read a low IC50 as inhibition by little substance. As usually defined, the Ki is the equilibrium dissociation constant of an inhibitor or competing ligand from its target. The compound `NC12C3C4C5C3C1C5C42` (stereo not given) [Cubylamine] came in with an IC50 of 259 µM and a Ki of 189 µM.

The compound `NC1C2C3CC4C2C2C1C3C42` (stereo not given) [bishomocubyl-10-amine] displayed an IC50 of 152 µM and a Ki of 111 µM.

In turn, `NC1C2C3C4C1C1C2C3C41` (stereo not given) [Homocubyl-9-amine] gave an IC50 of 843 µM and a Ki of 615 µM.

As for `NC1C2C3CC4C5CC(C1C53)C42` (stereo not given) [Trishomocubyl-4-amine], the IC50 worked out at 89 µM and affinity was put at a Ki of 65 µM.

Consider `CC12CC3CC(C)(C1)CC(N)(C3)C2` [MEMANTINE], for which the IC50 was 1.56 µM and the Ki was determined as 1.14 µM.
